Test results: ChEMBL document CHEMBL1201862, “PubChem BioAssay data set” (2004)
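Grown in 96-well plates, cells were treated for 48 hours with each compound at five concentrations. Insufficient inhibition: endpoint recorded as highest concentration tested. GI50 = concentration required for 50% inhibition of growth.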 Active and inactive are the calls of the source. No stated cut-off is given here; in the data, active = GI50 up to about 1.1 µM and inactive = higher.

Columns and labels:
Test in all cases: NCI-60 cell line screen, 48 h
OVCAR-4 = tested on: OVCAR-4
SW-620 = tested on: SW-620
MOLT-4 = tested on: MOLT-4
NCI-H226 = tested on: NCI-H226
CCRF-CEM = tested on: CCRF-CEM
ACHN = tested on: ACHN
HL-60 = tested on: HL-60
Malme-3M = tested on: Malme-3M
OVCAR-8 = tested on: OVCAR-8
HCT-116 = tested on: HCT-116
LXFL 529 = tested on: LXFL 529
SK-MEL-5 = tested on: SK-MEL-5
LOX IMVI = tested on: LOX IMVI
OVCAR-5 = tested on: OVCAR-5
TK-10 = tested on: TK-10
BT-549 = tested on: BT-549
NCI/ADR-RES = tested on: NCI/ADR-RES
DU-145 = tested on: DU-145
PC-3 = tested on: PC-3
A498 = tested on: A498

SMILES	GI50 (OVCAR-4)	GI50 (SW-620)	GI50 (MOLT-4)	GI50 (NCI-H226)	GI50 (CCRF-CEM)	GI50 (ACHN)	GI50 (HL-60)	GI50 (Malme-3M)	GI50 (OVCAR-8)	GI50 (HCT-116)	GI50 (LXFL 529)	GI50 (SK-MEL-5)	GI50 (LOX IMVI)	GI50 (OVCAR-5)	GI50 (TK-10)	GI50 (BT-549)	GI50 (NCI/ADR-RES)	GI50 (DU-145)	GI50 (PC-3)	GI50 (A498)
CCOC1=C2N=C(Cc3ccccc3F)N=C2C(=O)c2ccccc21	> 100 µM (inactive)	> 100 µM (inactive)	> 100 µM (inactive)	> 100 µM (inactive)	> 100 µM (inactive)	> 100 µM (inactive)	> 100 µM (inactive)	> 100 µM (inactive)	> 100 µM (inactive)	> 100 µM (inactive)	> 100 µM (inactive)	–	–	–	–	–	–	–	–	–
CCCCCCCCCCCc1cc(=O)c2c(O)cccc2o1	> 100 µM (inactive)	> 100 µM (inactive)	30.3 µM (inactive)	37.8 µM (inactive)	20.3 µM (inactive)	> 100 µM (inactive)	30.5 µM (inactive)	> 100 µM (inactive)	> 100 µM (inactive)	41.9 µM (inactive)	55.1 µM (inactive)	44.8 µM (inactive)	37.5 µM (inactive)	88.7 µM (inactive)	> 100 µM (inactive)	–	–	–	–	–
CCCCc1ccc(Nc2nc(N)c3[nH]cnc3n2)cc1	24.5 µM (inactive)	30.3 µM (inactive)	0.925 µM (active)	8.73 µM (inactive)	21.7 µM (inactive)	17 µM (inactive)	18.7 µM (inactive)	22.2 µM (inactive)	15.8 µM (inactive)	17.1 µM (inactive)	–	17 µM (inactive)	18.4 µM (inactive)	30.5 µM (inactive)	16.4 µM (inactive)	21.5 µM (inactive)	15.2 µM (inactive)	19.2 µM (inactive)	15 µM (inactive)	11.2 µM (inactive)
CC1(CC(=O)O)OC2CCCCCC2O1.NCc1ccccc1 (stereo unspecified)	> 100 µM (inactive)	> 100 µM (inactive)	> 100 µM (inactive)	> 100 µM (inactive)	34.2 µM (inactive)	> 100 µM (inactive)	> 100 µM (inactive)	> 100 µM (inactive)	> 100 µM (inactive)	74.8 µM (inactive)	–	88.1 µM (inactive)	> 100 µM (inactive)	> 100 µM (inactive)	> 100 µM (inactive)	> 100 µM (inactive)	> 100 µM (inactive)	> 100 µM (inactive)	> 100 µM (inactive)	> 100 µM (inactive)
CC(=O)OC12CC(C(F)(F)F)(C(F)(F)F)OC1(OC(C)=O)CC(C(F)(F)F)(C(F)(F)F)O2 (stereo unspecified)	4.23 µM (inactive)	5.43 µM (inactive)	1.06 µM (active)	6.17 µM (inactive)	2.04 µM (inactive)	0.287 µM (active)	1.89 µM (inactive)	4.86 µM (inactive)	2.71 µM (inactive)	3.66 µM (inactive)	–	0.385 µM (active)	1.73 µM (inactive)	9.29 µM (inactive)	8.28 µM (inactive)	5.42 µM (inactive)	10.9 µM (inactive)	4.06 µM (inactive)	0.805 µM (active)	2.14 µM (inactive)
O=C(Nc1nnc(-c2ccc(Cl)cc2)o1)C(SC(=S)N1CCOCC1)c1ccccc1 (stereo unspecified)	20.2 µM (inactive)	26 µM (inactive)	4.38 µM (inactive)	21.9 µM (inactive)	10 µM (inactive)	12.4 µM (inactive)	5.69 µM (inactive)	35 µM (inactive)	19.7 µM (inactive)	10.2 µM (inactive)	–	12.4 µM (inactive)	7.94 µM (inactive)	34.8 µM (inactive)	44.3 µM (inactive)	16.8 µM (inactive)	5.58 µM (inactive)	23.7 µM (inactive)	13.6 µM (inactive)	20.4 µM (inactive)
Cn1cc(-c2n[nH]c(-c3ccc(Cl)cc3)nc2=O)c2ccccc21	15.1 µM (inactive)	1.91 µM (inactive)	1.6 µM (inactive)	3.84 µM (inactive)	1.77 µM (inactive)	7.76 µM (inactive)	0.671 µM (active)	3.44 µM (inactive)	5.62 µM (inactive)	2.12 µM (inactive)	–	1.35 µM (inactive)	5.64 µM (inactive)	4.34 µM (inactive)	11.8 µM (inactive)	5.57 µM (inactive)	1.69 µM (inactive)	3.2 µM (inactive)	2.3 µM (inactive)	2.04 µM (inactive)
CCOc1cc(NC(C)=O)ccc1C(=O)NN1C(=O)C(Oc2ccccc2)C1c1ccccc1 (stereo unspecified)	> 100 µM (inactive)	> 100 µM (inactive)	1.77 µM (inactive)	57.8 µM (inactive)	28.6 µM (inactive)	26.5 µM (inactive)	25.9 µM (inactive)	52.5 µM (inactive)	> 100 µM (inactive)	94.4 µM (inactive)	–	42.8 µM (inactive)	85.3 µM (inactive)	> 100 µM (inactive)	> 100 µM (inactive)	> 100 µM (inactive)	> 100 µM (inactive)	> 100 µM (inactive)	> 100 µM (inactive)	45.4 µM (inactive)
CC1CC2OC(=O)C(C)C2CC2(C)C(OC3OC(CO)C(O)C(O)C3O)OCCC12 (stereo unspecified)	> 100 µM (inactive)	> 100 µM (inactive)	> 100 µM (inactive)	> 100 µM (inactive)	> 100 µM (inactive)	> 100 µM (inactive)	> 100 µM (inactive)	> 100 µM (inactive)	> 100 µM (inactive)	> 100 µM (inactive)	–	> 100 µM (inactive)	> 100 µM (inactive)	> 100 µM (inactive)	> 100 µM (inactive)	15.5 µM (inactive)	> 100 µM (inactive)	> 100 µM (inactive)	> 100 µM (inactive)	> 100 µM (inactive)
Cc1cc(C)cc(Nc2nnc3n2S(=O)(=O)c2cc(C)c(Cl)cc2S3)c1	8.69 µM (inactive)	3.45 µM (inactive)	3.08 µM (inactive)	3.07 µM (inactive)	0.313 µM (active)	7.66 µM (inactive)	4.17 µM (inactive)	1.87 µM (inactive)	3.97 µM (inactive)	3.48 µM (inactive)	–	5.92 µM (inactive)	3.44 µM (inactive)	5.35 µM (inactive)	10.7 µM (inactive)	4.22 µM (inactive)	2.99 µM (inactive)	10.3 µM (inactive)	2.77 µM (inactive)	5.09 µM (inactive)
CCOC(=O)/C(=C\NCC(OCC)OCC)c1nc2ccccc2[nH]1	31.9 µM (inactive)	41.4 µM (inactive)	17.1 µM (inactive)	37.7 µM (inactive)	33.3 µM (inactive)	35.2 µM (inactive)	23.9 µM (inactive)	25.8 µM (inactive)	32.8 µM (inactive)	29.6 µM (inactive)	–	14.5 µM (inactive)	24.8 µM (inactive)	48.6 µM (inactive)	31.3 µM (inactive)	22.4 µM (inactive)	2.02 µM (inactive)	43.7 µM (inactive)	24 µM (inactive)	48.6 µM (inactive)
O=C1C=C2CC[C@H]3[C@@H]4CC[C@H](OC(=O)c5cccc6cc7ccccc7nc56)[C@H]4CC[C@@H]3[C@H]2CC1	> 100 µM (inactive)	> 100 µM (inactive)	54.3 µM (inactive)	> 100 µM (inactive)	24.7 µM (inactive)	> 100 µM (inactive)	> 100 µM (inactive)	> 100 µM (inactive)	> 100 µM (inactive)	> 100 µM (inactive)	–	> 100 µM (inactive)	15.9 µM (inactive)	> 100 µM (inactive)	> 100 µM (inactive)	> 100 µM (inactive)	> 100 µM (inactive)	> 100 µM (inactive)	> 100 µM (inactive)	> 100 µM (inactive)
N#Cc1ncn(-c2ccccc2)c1N	> 100 µM (inactive)	> 100 µM (inactive)	> 100 µM (inactive)	> 100 µM (inactive)	> 100 µM (inactive)	> 100 µM (inactive)	> 100 µM (inactive)	> 100 µM (inactive)	> 100 µM (inactive)	> 100 µM (inactive)	–	> 100 µM (inactive)	> 100 µM (inactive)	> 100 µM (inactive)	> 100 µM (inactive)	> 100 µM (inactive)	> 100 µM (inactive)	> 100 µM (inactive)	> 100 µM (inactive)	> 100 µM (inactive)
Cc1cc2c(cc1C)C(=O)/C(=C/c1ccccc1C(=O)O)C2	35 µM (inactive)	46.8 µM (inactive)	25.4 µM (inactive)	15.3 µM (inactive)	30.9 µM (inactive)	55 µM (inactive)	30.5 µM (inactive)	47.8 µM (inactive)	38.4 µM (inactive)	37.9 µM (inactive)	–	47.6 µM (inactive)	25.9 µM (inactive)	23.6 µM (inactive)	> 100 µM (inactive)	25.6 µM (inactive)	54.8 µM (inactive)	> 100 µM (inactive)	33.9 µM (inactive)	31.8 µM (inactive)
COc1ccc(C=C(c2ccc(OCc3ccccc3)cc2)c2ccc(OCc3ccccc3)cc2)cc1	> 100 µM (inactive)	> 100 µM (inactive)	–	> 100 µM (inactive)	–	> 100 µM (inactive)	> 100 µM (inactive)	> 100 µM (inactive)	> 100 µM (inactive)	–	> 100 µM (inactive)	> 100 µM (inactive)	> 100 µM (inactive)	> 100 µM (inactive)	> 100 µM (inactive)	–	–	–	–	–
